Reference: US10016439B2, “Fused imidazole compounds” (ONO PHARMACEUTICAL CO., LTD., priority 2014, dated 2018)

Tests used:
[1] = Hepatic microsomal stability; type: in vitro ADME; settings: human microsomes 0.5 mg protein/mL, NADPH, 1 μM, 37° C.; compound remaining; time point not stated
Method: Microsomal stability assays were performed using pooled hepatic microsomes from human. Test and control compounds (propranolol or dextromethorphan, midazolam), prepared in DMSO, were incubated at an initial concentration of 1 μM (0.25% DMSO final, n=2) with microsomes (0.5 mg protein/mL) at 37° C. in the presence of the cofactor, NADPH (1 mM). Aliquots were removed at 0, 5, 10, 20 and 40 minutes for termination of reactions and compound extraction with acetonitrile containing an analytical internal standard. Samples were centrifuged and the supernatant fractions analysed for parent compound by mass spectrometry (LC-MS/MS).
(§1) The amount of compound remaining (expressed as %) was determined from the MS response in each sample relative to that in the T=0 samples (normalised for internal standard).
Ln plots of the % remaining were used to determine the half-life for compound disappearance using the relationship: t½(min)=−0.693/λ where λ is the slope of the Ln % remaining vs time curve.

[2] = Cryopreserved hepatocyte stability; type: in vitro ADME; settings: human hepatocytes 0.5 million cells/mL, 1 μM, 37° C.; compound remaining; time point not stated
Method: Hepatocyte stability assays were performed using pooled human cryopreserved hepatocytes. Test and control compounds (testosterone, midazolam, 4-methylumbelliferone), prepared in DMSO, were incubated at an initial concentration of 1 μM (0.25% DMSO final, n=2) with hepatocytes at cell densities of 0.5 million cells/mL for both species at 37° C. Aliquots were removed at 0, 10, 20, 45 and 90 minutes for termination of reactions and compound extraction with acetonitrile containing an analytical internal standard. Samples were centrifuged and the supernatant fractions analysed for parent compound by mass spectrometry (LC-MS/MS).
as §1
Ln plots of the % remaining were used to determine the half-life for compound disappearance using the relationship: t½(min)=−0.693/λ where λ is the slope of the Ln % remaining vs time curve. Hepatic Microsomal Stability: Half-life/Intrinsic Clearance Format

GABAA α5/β3/γ2 [3] = target: T1, GABAA α5/β3/γ2 (Homo sapiens (Human), UniProt P18507+P31644); assay: Binding assay (Scintillation Proximity Assay, [3H]-Ro15-1788); settings: membranes of HEK293 cells expressing GABAA α5/β3/γ2
T1 sequence (P31644 32-462): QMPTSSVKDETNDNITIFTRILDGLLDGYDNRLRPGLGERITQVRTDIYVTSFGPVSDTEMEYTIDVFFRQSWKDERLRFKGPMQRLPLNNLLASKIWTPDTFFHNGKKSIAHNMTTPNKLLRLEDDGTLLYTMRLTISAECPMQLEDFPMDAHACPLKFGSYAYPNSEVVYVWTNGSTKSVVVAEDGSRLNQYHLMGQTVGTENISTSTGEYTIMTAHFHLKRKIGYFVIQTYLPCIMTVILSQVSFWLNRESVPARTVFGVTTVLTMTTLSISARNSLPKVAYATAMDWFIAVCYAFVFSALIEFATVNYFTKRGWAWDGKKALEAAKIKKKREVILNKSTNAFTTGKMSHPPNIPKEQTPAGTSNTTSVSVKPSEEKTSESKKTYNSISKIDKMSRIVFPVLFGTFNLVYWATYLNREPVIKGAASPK
T1 sequence (P28472 26-473 partner): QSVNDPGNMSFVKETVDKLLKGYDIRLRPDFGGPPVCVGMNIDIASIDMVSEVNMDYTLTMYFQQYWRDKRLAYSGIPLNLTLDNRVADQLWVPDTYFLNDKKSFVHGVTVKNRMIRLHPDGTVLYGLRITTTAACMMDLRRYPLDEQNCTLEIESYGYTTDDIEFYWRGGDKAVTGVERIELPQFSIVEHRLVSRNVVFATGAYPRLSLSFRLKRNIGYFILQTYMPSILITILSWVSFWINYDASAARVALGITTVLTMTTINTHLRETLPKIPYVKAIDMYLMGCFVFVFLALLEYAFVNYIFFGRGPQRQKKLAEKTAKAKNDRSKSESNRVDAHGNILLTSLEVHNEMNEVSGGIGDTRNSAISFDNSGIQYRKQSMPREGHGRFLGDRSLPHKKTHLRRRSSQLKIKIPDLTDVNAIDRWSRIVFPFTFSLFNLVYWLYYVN
T1 sequence (P18507 40-475): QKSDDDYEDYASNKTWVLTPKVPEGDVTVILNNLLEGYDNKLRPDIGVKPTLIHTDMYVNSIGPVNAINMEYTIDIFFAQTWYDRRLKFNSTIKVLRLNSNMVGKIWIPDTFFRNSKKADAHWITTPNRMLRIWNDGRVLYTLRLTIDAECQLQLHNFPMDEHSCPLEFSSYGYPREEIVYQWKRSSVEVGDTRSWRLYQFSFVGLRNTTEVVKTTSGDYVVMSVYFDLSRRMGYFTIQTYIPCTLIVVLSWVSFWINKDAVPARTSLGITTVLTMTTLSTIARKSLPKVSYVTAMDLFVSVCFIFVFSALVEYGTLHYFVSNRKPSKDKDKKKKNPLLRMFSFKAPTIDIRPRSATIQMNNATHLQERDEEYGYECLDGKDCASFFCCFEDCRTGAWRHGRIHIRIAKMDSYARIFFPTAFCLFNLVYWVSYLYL
Method: The GABAAα5/β3/γ2 protein used for the Scintillation Proximity Assay was derived from membranes produced from HEK293 GABAA α5/β3/γ2 expressing HEK293 cell line. HEK293 GABAA α5/β3/γ2 expressing HEK293 cell line was cultured, then harvested and centrifuged the cells. Membranes were produced by homogenization of the cell pellet with a tissue homogenizer. The resulting homogenate was centrifuged at 48,000 g for 30 minutes, re-suspended and washed twice with 10 mM potassium phosphate buffer, pH 7.4. Final resuspension of membranes took place in buffer containing 10 mM potassium phosphate and 100 mM KCl.
For assay, test compound (50×) was added 0.5 μl per well to a white-walled clear-bottomed 384-well plate.
Full signal controls were prepared by the addition of 0.5 μl of DMSO to the appropriate wells. Mixture of 10 μl of protein and 10 μl of PVT-WGA beads (0.2 mg/well) were added to the plate. Both protein and bead were diluted to the desired concentration with 10 mM potassium phosphate, pH 7.4, containing 100 mM KCl. The plate was pre-incubated for 30 minutes at room temperature with shaking before initiation of the reaction by the addition of radioligand. 5 μl of [^3H]-Ro15-1788 was added at a concentration of 30 nM (5×) and the plates sealed. The reaction mix was incubated at room temperature overnight with gentle agitation on a plate shaker. The final DMSO concentration for all phases of the screening was 2% (v/v). At the end of the overnight incubation, the plates were centrifuged for two minutes at 1,000 rpm prior to reading on a Perkin Elmer Microbeta.
Concentration-response testing was performed in duplicate and the percent effect calculated for each replicate data point. The raw data was entered in Activity Base and the curves were fitted to the mean data using Excel and XL Fit, and shown as Ki.

GABAA α1/β3/γ2 = GABAA α1/β3/γ2 (Homo sapiens (Human), UniProt P14867+P18507); assay: Functional assay (PatchXpress automated patch-clamp), α1 subtype; type: cell-based; settings: % change of GABA EC20 response; compound 1 μM; HEK293 cells
GABAA α1/β3/γ2, sequence (P14867 28-456): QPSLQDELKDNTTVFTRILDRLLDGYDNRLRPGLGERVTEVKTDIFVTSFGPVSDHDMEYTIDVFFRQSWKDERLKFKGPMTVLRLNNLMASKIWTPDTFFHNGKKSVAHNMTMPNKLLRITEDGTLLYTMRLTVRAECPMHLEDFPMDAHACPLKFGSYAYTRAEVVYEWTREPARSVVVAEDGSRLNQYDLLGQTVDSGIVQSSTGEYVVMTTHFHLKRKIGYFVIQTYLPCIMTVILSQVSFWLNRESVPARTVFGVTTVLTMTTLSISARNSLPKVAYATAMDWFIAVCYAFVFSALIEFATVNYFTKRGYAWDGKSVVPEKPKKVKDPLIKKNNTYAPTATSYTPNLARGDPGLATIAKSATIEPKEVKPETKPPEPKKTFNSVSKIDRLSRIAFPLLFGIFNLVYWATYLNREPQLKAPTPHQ
GABAA α1/β3/γ2, sequence (P28472 26-473 partner): as the sequence (P28472 26-473 partner) above
GABAA α1/β3/γ2, sequence (P18507 40-475): as the sequence (P18507 40-475) above
Text: (§2) GABAA α5/β3/γ2 HEK293 cell line was used throughout the functional assay in PatchXpress (Molecular Devices), the automated patch-clamp system. Cells stably expressing the appropriate GABAA subtype (α5/β3/γ2, α1/β3/γ2, α2/β3/γ2 or α3/β3/γ2) were dissociated from poly-D-lysine treated tissue culture flasks using a mixture of one part TrypLE (Invitrogen, cat #12604): one part Dulbecco's Phosphate Buffered Saline (Invitrogen, cat #14190). The dissociated cells were re-suspended in growth media (D-MEM/F-12 media (Invitrogen, cat #11320) supplemented with 10% (v/v) Foetal Bovine Serum (Invitrogen, cat #10082) and 1% (v/v) non-essential amino acids (Invitrogen, cat #11140)) and allowed to recover for one hour at 37° C. in a humidified incubator with 5% CO2. At the end of the recovery period cells were centrifuged at 1,000 rpm for two minutes and the resulting pellet re-suspended in external solution (in mM; 137 NaCl, 4 KCl, 10 HEPES, 1.8 CaCl2, 1 MgCl2, 10 glucose, pH set to 7.35 with NaOH). Cells were counted and diluted to 2.5×10^6/ml in external solution. The patch-clamp assay protocol involved determination of current amplitude with control applications of GABA EC20 containing concentration-matched DMSO (0.3% v/v), then pre-incubation of the test compound for one minute prior to the addition of the same compound diluted with the GABA EC20. Compound and/or GABA was applied for five seconds, with two minute wash periods between applications. No wash period was present at the end of the compound pre-application stage. The internal solution comprised (in mM) 90 KCl, 50 KF, 11 EGTA, 10 HEPES, 1 MgCl2, 2 Mg-ATP, the pH was set to 7.35 with KOH and the holding potential was −60 mV. Compounds were assayed at a concentration of 1 μM.

GABAA α5/β3/γ2 [4] = target: T1, GABAA α5/β3/γ2; assay: Functional assay (PatchXpress automated patch-clamp), α5 subtype; type: cell-based; settings: % change of GABA EC20 response; compound 1 μM; HEK293 cells
Text: as §2

| microsomal stability (%) [1] [%] | hepatocyte stability (%) [2] [%] | Ki (GABAA α5/β3/γ2 [3]) [nM] | inhibition at 1 µM (GABAA α1/β3/γ2) [%] | inhibition at 1 µM (GABAA α5/β3/γ2 [4]) [%] | SMILES |
| --- | --- | --- | --- | --- | --- |
| 72 | 75 | – | – | – | Cc1nc(Nc2ccc3c(n2)OCC(=O)N3C)cc2c1ncn2CC1CC1 [Example 124, 6-((1-(Cyclopropylmethyl)-4-methyl-1H-imidazo[4,5-c]pyridin-6-yl)amino)-1-methyl-1H-pyrido[2,3-b][1,4]oxazin-2(3H)-one] |
| – | – | 6.4 | 4.8 | 46.7 | Cc1cc(Nc2ccc3c(n2)OCC(=O)N3C)nc2c1ncn2CC1CC1 [Example 159, 6-((3-(Cyclopropylmethyl)-7-methyl-3H-imidazo[4,5-b]pyridin-5-yl)amino)-1-methyl-1H-pyrido[2,3-b][1,4]oxazin-2(3H)-one] |
| 77 | 101 | – | – | – | CN1C(=O)COc2nc(Nc3cc(C(F)(F)F)c4ncn(CC5CC5)c4n3)ccc21 [Example 151, 6-((3-(Cyclopropylmethyl)-7-(trifluoromethyl)-3H-imidazo[4,5-b]pyridin-5-yl)amino)-1-methyl-1H-pyrido[2,3-b][1,4]oxazin-2(3H)-one] |
| 94 | 85 | – | – | – | Cc1nc(Nc2cnc3c(c2)OCC(=O)N3C)cc2c1ncn2CC1CC1 [Example 120, 7-((1-(Cyclopropylmethyl)-4-methyl-1H-imidazo[4,5-c]pyridin-6-yl)amino)-4-methyl-2H-pyrido[3,2-b][1,4]oxazin-3(4H)-one] |

Second part, the molecule before the results:

| SMILES | microsomal stability (%) [1] [%] | hepatocyte stability (%) [2] [%] | Ki (GABAA α5/β3/γ2 [3]) [nM] | inhibition at 1 µM (GABAA α1/β3/γ2) [%] | inhibition at 1 µM (GABAA α5/β3/γ2 [4]) [%] |
| --- | --- | --- | --- | --- | --- |
| Cc1c(F)c(Nc2cc3c(cn2)N(C)C(=O)CO3)cc2c1ncn2CC1CC1 [Example 87, 7-((1-(Cyclopropylmethyl)-5-fluoro-4-methyl-1H-benzo[d]imidazol-6-yl)amino)-4-methyl-2H-pyrido[4,3-b][1,4]oxazin-3(4H)-one] | 76 | 103 | – | – | – |
| CN1C(=O)COc2ncc(Nc3ccc4ncn(CC5CC5)c4n3)cc21 [Example 111, 7-((3-(Cyclopropylmethyl)-3H-imidazo[4,5-b]pyridin-5-yl)amino)-1-methyl-1H-pyrido[2,3-b][1,4]oxazin-2(3H)-one] | – | – | 34.6 | -0.3 | 44.4 |
| CN1C(=O)COc2cc(Nc3cnc4ncn(CC5CC5)c4n3)ccc21 [Example 42, 7-((1-(Cyclopropylmethyl)-1H-imidazo[4,5-b]pyrazin-6-yl)amino)-4-methyl-2H-benzo[b][1,4]oxazin-3(4H)-one] | – | – | 24 | 0.2 | 55.9 |
| Fc1cc(Nc2cc3c(ncn3CC3CC3)c(F)c2F)ccc1-n1ccnc1 [Example 95, 1-(Cyclopropylmethyl)-4,5-difluoro-N-(3-fluoro-4-(1H-imidazol-1-yl)phenyl)-1H-benzo[d]imidazol-6-amine] | 89 | 96 | – | – | – |
| CN1C(=O)COc2cc(Nc3cc4c(cc3F)ncn4CC3CC(F)(F)C3)cnc21 [Example 52, 7-((1-((3,3-Difluorocyclobutyl)methyl)-5-fluoro-1H-benzo[d]imidazol-6-yl)amino)-4-methyl-2H-pyrido[3,2-b][1,4]oxazin-3(4H)-one] | – | – | 6.7 | 7.5 | 41.8 |
| CN1C(=O)COc2cc(Nc3cc4c(cc3F)ncn4CCC3CC3)cnc21 [Example 67, 7-((1-(2-Cyclopropylethyl)-5-fluoro-1H-benzo[d]imidazol-6-yl)amino)-4-methyl-2H-pyrido[3,2-b][1,4]oxazin-3(4H)-one] | – | – | 4.1 | -0.5 | 52.5 |
| Cn1c(=O)oc2cc(Nc3cnc4ncn(CC5CC5)c4n3)ccc21 [Example 43, 6-((1-(Cyclopropylmethyl)-1H-imidazo[4,5-b]pyrazin-6-yl)amino)-3-methylbenzo[d]oxazol-2(3H)-one] | – | – | 42 | 8 | 55.1 |
| Cc1c(F)c(Nc2ccc(-n3ccnc3)nc2)cc2c1ncn2CC1CC1 [Example 88, N-(6-(1H-Imidazol-1-yl)pyridin-3-yl)-1-(cyclopropylmethyl)-5-fluoro-4-methyl-1H-benzo[d]imidazol-6-amine] | 95 | 81 | – | – | – |
| COCCN1C(=O)COc2cc(Nc3ncc4ncn(CC5CC5)c4n3)ccc21 [Example 46, 7-((9-(Cyclopropylmethyl)-9H-purin-2-yl)amino)-4-(2-methoxyethyl)-2H-benzo[b][1,4]oxazin-3(4H)-one] | – | – | 38 | -0.9 | 42.4 |
| O=C1COc2cc(Nc3cc4c(cn3)ncn4CC3CC3)ccc2N1C1CC1 [Example 37, 4-Cyclopropyl-7-((1-(cyclopropylmethyl)-1H-imidazo[4,5-c]pyridin-6-yl)amino)-2H-benzo[b][1,4]oxazin-3(4H)-one] | – | – | 38.8 | -5 | 46 |
